From patent publication US20250376461A1, “INDAZOLE DERIVATIVES FOR TREATING TRPM3-MEDIATED DISORDERS” (Katholieke Universiteit Leuven, priority 2022, published 2025) come the findings set out here.

Bounds are passed on as bounds.

The target in the assay is T1, mouse TRPM3α2 (mTRPM3) ion channel (Mus musculus, UniProt J9SQF3).
T1 construct: expressed in transfected cells; host or cells: flip-in HEK293
T1 sequence (J9SQF3 1-1709 isoform J9SQF3-12): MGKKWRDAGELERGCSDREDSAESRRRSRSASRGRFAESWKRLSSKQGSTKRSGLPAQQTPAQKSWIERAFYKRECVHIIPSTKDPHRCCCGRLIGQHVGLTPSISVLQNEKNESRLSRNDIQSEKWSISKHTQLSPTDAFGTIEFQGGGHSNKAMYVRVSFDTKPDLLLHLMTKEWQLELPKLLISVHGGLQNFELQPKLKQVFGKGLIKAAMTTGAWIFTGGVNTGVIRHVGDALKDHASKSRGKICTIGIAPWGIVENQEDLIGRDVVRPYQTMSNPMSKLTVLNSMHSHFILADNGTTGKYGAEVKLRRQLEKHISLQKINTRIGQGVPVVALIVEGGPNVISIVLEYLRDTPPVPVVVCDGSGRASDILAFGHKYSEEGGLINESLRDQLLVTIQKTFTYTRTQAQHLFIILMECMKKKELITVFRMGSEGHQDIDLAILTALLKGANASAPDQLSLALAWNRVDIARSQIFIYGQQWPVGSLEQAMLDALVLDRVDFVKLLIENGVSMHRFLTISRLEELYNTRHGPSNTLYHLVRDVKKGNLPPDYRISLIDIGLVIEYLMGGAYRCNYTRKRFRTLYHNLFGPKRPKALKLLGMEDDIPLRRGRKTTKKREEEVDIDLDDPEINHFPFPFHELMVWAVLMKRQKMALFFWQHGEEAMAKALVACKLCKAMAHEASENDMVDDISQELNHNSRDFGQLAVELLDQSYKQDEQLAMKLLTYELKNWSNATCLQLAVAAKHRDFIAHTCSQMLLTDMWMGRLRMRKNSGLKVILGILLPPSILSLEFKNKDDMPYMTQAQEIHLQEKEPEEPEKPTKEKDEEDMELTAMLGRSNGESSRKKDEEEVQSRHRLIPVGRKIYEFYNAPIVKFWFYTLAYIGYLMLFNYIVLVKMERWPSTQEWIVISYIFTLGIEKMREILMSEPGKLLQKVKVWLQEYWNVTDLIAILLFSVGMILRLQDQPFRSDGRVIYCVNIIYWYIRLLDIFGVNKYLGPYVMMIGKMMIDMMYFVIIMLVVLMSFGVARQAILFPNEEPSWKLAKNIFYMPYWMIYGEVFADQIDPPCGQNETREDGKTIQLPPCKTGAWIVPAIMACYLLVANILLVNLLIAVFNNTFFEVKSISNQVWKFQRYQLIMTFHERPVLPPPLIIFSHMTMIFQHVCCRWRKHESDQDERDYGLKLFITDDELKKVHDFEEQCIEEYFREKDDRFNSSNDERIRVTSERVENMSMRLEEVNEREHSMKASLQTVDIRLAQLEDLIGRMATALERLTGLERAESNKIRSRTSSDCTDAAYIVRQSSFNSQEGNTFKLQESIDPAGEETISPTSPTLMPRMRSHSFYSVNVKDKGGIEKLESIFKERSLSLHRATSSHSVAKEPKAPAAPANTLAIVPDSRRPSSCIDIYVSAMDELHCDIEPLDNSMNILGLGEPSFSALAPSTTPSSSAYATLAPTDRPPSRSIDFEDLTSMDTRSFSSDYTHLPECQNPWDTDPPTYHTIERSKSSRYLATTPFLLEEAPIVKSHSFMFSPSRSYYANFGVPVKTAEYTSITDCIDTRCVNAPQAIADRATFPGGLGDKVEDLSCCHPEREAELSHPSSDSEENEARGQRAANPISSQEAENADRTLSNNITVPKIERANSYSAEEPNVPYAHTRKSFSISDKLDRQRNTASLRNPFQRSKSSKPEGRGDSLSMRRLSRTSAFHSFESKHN
The experiment in a line: TRPM3 ion channel driven Ca2+ uptake, Fluo-4 AM assay, mTRPM3alpha2 overexpressing flip-in HEK293 cells stimulated with pregnenolone sulfate (50 μM). It counts as cell-based. The settings on record: mTRPM3 overexpressing HEK293 cells stimulated with pregnenolone sulfate (50 μM), activity ranges A, B, C. The protocol: Monitoring the TRPM3 Ion Channel Driven Ca2+ Uptake.
In order to monitor the inhibition of the mouse TRPM3α2 (mTRPM3) ion channel by the compounds of the invention, a cellular system making use of an mTRPM3alpha2 or hTRPM3 overexpressing cell line (flip-in HEK293) was used. The TRPM3 channel was stimulated/opened with Pregnenolone sulfate (PS) (50 μM) which results in Ca^2+ influx.
For mTRPM3, the intracellular Ca^2+ was measured with a Calcium responsive dye, Fluor-4 AM ester (Invitrogen). Cells were cultured until a confluence of 80-90%, washed with Versene (Invitrogen) and detached from the surface by a short incubation with 0.05% Trypsin (Invitrogen). The trypsination process was stopped by the addition of complete cell culture medium (DMEM, glutamax, 10% FCS, NEAA, Pen-Strep). Cells were collected and resuspended in Krebs buffer without Calcium at RT.
Prior the cell seeding (±2000 cells/well into a black, 384 well plate (Greiner)) the diluted compound was added in the assay plate, together with the PS dissolved in Krebs buffer containing Calcium. […] Directly after cell addition the plates were read on an Envision fluorescence reader (Perkin Elmer) by an Excitation of 485 nm and emission at 535 nm.
Channel inhibition was calculated compared to a non-PS stimulated control versus a condition stimulated with PS (50 μM) with vehicle. The ability of the compounds of the invention to inhibit this activity was determined as: Percentage inhibition=[1−((RFU determined for sample with test compound present−RFU determined for sample with positive control inhibitor) divided by (RFU determined in the presence of vehicle−RFU determined for sample with positive control inhibitor))]*100.
The activities of the Example compounds cpd 001-262 tested are depicted in the table below. All tested compounds show an activity in the Fluo-4 AM assay. The activity ranges A, B and C refer to IC50 values in the Fluo-4 AM assay as follows: “A”: IC50<1 μM; “B”: 1 μM≤IC50≤20 μM and “C”: IC50>20 μM.
The IC50 is the point on the concentration scale where inhibition reaches its midpoint. A lower IC50 goes with higher potency. Compound `Cc1ccc(COc2ccc3nn(C)c(C(=O)NC4(C(N)=O)CCOC4)c3c2)cn1` (single isomer, unassigned) [Cpd 164 - En1, N-(3-carbamoyloxolan-3-yl)-2-methyl-5-[(6-methylpyridin-3-yl)methoxy]-2H-indazole-3-carboxamide] displayed an IC50 of 1000 to 20000 nM. The figure for `Cc1ccc(COc2ccc3nn(C)c(C(=O)NC4(C(N)=O)CCOC4)c3c2)cn1` (single isomer, unassigned) [Cpd 164 - En2, N-(3-carbamoyloxolan-3-yl)-2-methyl-5-[(6-methylpyridin-3-yl)methoxy]-2H-indazole-3-carboxamide] is 1000 to 20000 nM; for `Cn1nc2ccc(OCC3CC3)cc2c1C(=O)NC1(C(N)=O)CCOC1` (single isomer, unassigned) [Cpd 165 - En1] it is 1000 to 20000 nM. The figure for `Cn1nc2ccc(OCC3CC3)cc2c1C(=O)NC1(C(N)=O)CCOC1` (single isomer, unassigned) [Cpd 165 - En2] is more than 20000 nM.

In turn, `Cn1nc2ccc(OCc3ccccc3F)cc2c1C(=O)NC1(C(N)=O)CCOC1` (single isomer, unassigned) [Cpd 166 - En1] registered an IC50 of 1000 to 20000 nM. The value for `Cn1nc2ccc(OCc3ccccc3F)cc2c1C(=O)NC1(C(N)=O)CCOC1` (single isomer, unassigned) [Cpd 166 - En2] was less than 1000 nM.

In the case of `Cn1nc2ccc(OCC3COC3)cc2c1C(=O)NC(C)(CO)C(N)=O` (single isomer, unassigned) [Cpd 167 - En1], the IC50 is more than 20000 nM. The value for `Cn1nc2ccc(OCC3COC3)cc2c1C(=O)NC(C)(CO)C(N)=O` (single isomer, unassigned) [Cpd 167 - En2] was more than 20000 nM; that for `Cn1nc2ccc(OCc3cccnc3)cc2c1C(=O)NC1(C(N)=O)CCOC1` (single isomer, unassigned) [Cpd 168 - En1] was 1000 to 20000 nM.

As for `Cn1nc2ccc(OCc3cccnc3)cc2c1C(=O)NC1(C(N)=O)CCOC1` (single isomer, unassigned) [Cpd 168 - En2], the half-maximal inhibitory concentration (IC50) was less than 1000 nM. In the case of `Cc1ccc(COc2ccc3nn(C)c(C(=O)NC4(CO)CCNC4=O)c3c2)cn1` (single isomer, unassigned) [Cpd 169 - En1], the IC50 is more than 20000 nM. The figure for `Cc1ccc(COc2ccc3nn(C)c(C(=O)NC4(CO)CCNC4=O)c3c2)cn1` (single isomer, unassigned) [Cpd 169 - En2] is less than 1000 nM; for `Cc1ncsc1COc1ccc2nn(C)c(C(=O)NC3(C(N)=O)CCOC3)c2c1` (single isomer, unassigned) [Cpd 170 -En1] it is 1000 to 20000 nM; for `Cc1ncsc1COc1ccc2nn(C)c(C(=O)NC3(C(N)=O)CCOC3)c2c1` (single isomer, unassigned) [Cpd 170 -En2] it is 1000 to 20000 nM. The value for `Cn1nc2ccc(OCc3ccccc3F)cc2c1C(=O)NC1(CO)CCNC1=O` (single isomer, unassigned) [Cpd 171 -En1] was less than 1000 nM. Turning to `Cn1nc2ccc(OCc3ccccc3F)cc2c1C(=O)NC1(CO)CCNC1=O` (single isomer, unassigned) [Cpd 171 -En2], the IC50 was 1000 to 20000 nM. The value for `COc1ccc2nn(C)c(C(=O)NC(C)(CO)C(N)=O)c2c1` (single isomer, unassigned) [Cpd 172 - En1] was more than 20000 nM; that for `COc1ccc2nn(C)c(C(=O)NC(C)(CO)C(N)=O)c2c1` (single isomer, unassigned) [Cpd 172 - En2] was 1000 to 20000 nM; that for `Cn1nc2ccc(OCC3CCC3)cc2c1C(=O)NC(C)(CO)C(N)=O` (single isomer, unassigned) [Cpd 173 - En1] was less than 1000 nM. The figure for `Cn1nc2ccc(OCC3CCC3)cc2c1C(=O)NC(C)(CO)C(N)=O` (single isomer, unassigned) [Cpd 173 - En2] is 1000 to 20000 nM; for `Cc1ccc(COc2ccc3nn(C)c(C(=O)NC(C)(CO)C(N)=O)c3c2)cn1` (single isomer, unassigned) [Cpd 174 - En1] it is 1000 to 20000 nM. The figure for `Cc1ccc(COc2ccc3nn(C)c(C(=O)NC(C)(CO)C(N)=O)c3c2)cn1` (single isomer, unassigned) [Cpd 174 - En2] is less than 1000 nM; for `Cn1nc2ccc(OCc3ccccc3C(F)F)cc2c1C(=O)NC1(C(N)=O)CCOC1` (single isomer, unassigned) [Cpd 175 - En1] it is less than 1000 nM; for `Cn1nc2ccc(OCc3ccccc3C(F)F)cc2c1C(=O)NC1(C(N)=O)CCOC1` (single isomer, unassigned) [Cpd 175 - En2] it is 1000 to 20000 nM.

`Cn1nc2ccc(OCc3ccccc3C(F)F)cc2c1C(=O)NC1(CO)CCNC1=O` (single isomer, unassigned) [Cpd 176 - En1] returned an IC50 of less than 1000 nM. The figure for `Cn1nc2ccc(OCc3ccccc3C(F)F)cc2c1C(=O)NC1(CO)CCNC1=O` (single isomer, unassigned) [Cpd 176 - En2] is 1000 to 20000 nM. The figure for `Cn1nc2ccc(OCc3cccnc3C(F)(F)F)cc2c1C(=O)NC1(CO)CCNC1=O` (single isomer, unassigned) [Cpd 177 - En1] is less than 1000 nM; for `Cn1nc2ccc(OCc3cccnc3C(F)(F)F)cc2c1C(=O)NC1(CO)CCNC1=O` (single isomer, unassigned) [Cpd 177 - En2] it is 1000 to 20000 nM.

As for `Cn1nc2ccc(OCc3cccnc3C(F)(F)F)cc2c1C(=O)NC1(C(N)=O)CCOC1` (single isomer, unassigned) [Cpd 178 - En1], the IC50 was less than 1000 nM. `Cn1nc2ccc(OCc3cccnc3C(F)(F)F)cc2c1C(=O)NC1(C(N)=O)CCOC1` (single isomer, unassigned) [Cpd 178 - En2]: the IC50 was less than 1000 nM. The value for `Cc1ncc(COc2ccc3nn(C)c(C(=O)NC(C)(CO)C(N)=O)c3c2)o1` (single isomer, unassigned) [Cpd 179 - En1] was 1000 to 20000 nM; that for `Cc1ncc(COc2ccc3nn(C)c(C(=O)NC(C)(CO)C(N)=O)c3c2)o1` (single isomer, unassigned) [Cpd 179 - En2] was less than 1000 nM. The figure for `Cn1nc2ccc(OCc3cccnc3)cc2c1C(=O)NC1(CO)CCNC1=O` (single isomer, unassigned) [Cpd 180 - En1] is less than 1000 nM. For the compound `Cn1nc2ccc(OCc3cccnc3)cc2c1C(=O)NC1(CO)CCNC1=O` (single isomer, unassigned) [Cpd 180 - En2], the IC50 was 1000 to 20000 nM. Turning to `Cc1ccc(COc2ccc3nn(C)c(C(=O)NC(C)(CO)C(N)=O)c3c2)nc1` (single isomer, unassigned) [Cpd 181 - En1], the IC50 is more than 20000 nM. The value for `Cc1ccc(COc2ccc3nn(C)c(C(=O)NC(C)(CO)C(N)=O)c3c2)nc1` (single isomer, unassigned) [Cpd 181 - En2] was 1000 to 20000 nM. The value for `Cc1ncsc1COc1ccc2nn(C)c(C(=O)NC(C)(CO)CC(F)F)c2c1` (single isomer, unassigned) [Cpd 182 - En1] was less than 1000 nM; that for `Cc1ncsc1COc1ccc2nn(C)c(C(=O)NC(C)(CO)CC(F)F)c2c1` (single isomer, unassigned) [Cpd 182 - En2] was less than 1000 nM. As to `CNC(=O)C1(NC(=O)c2c3cc(OCc4cccnc4C(F)(F)F)ccc3nn2C)CCOC1` (single isomer, unassigned) [Cpd 183 - En1, 2-methyl-N-[3-(methylcarbamoyl)oxolan-3-yl]-5-{[2-(trifluoromethyl)pyridin-3-yl]methoxy}-2H-indazole-3-carboxamide], the IC50 is less than 1000 nM. The figure for `CNC(=O)C1(NC(=O)c2c3cc(OCc4cccnc4C(F)(F)F)ccc3nn2C)CCOC1` (single isomer, unassigned) [Cpd 183 - En2, 2-methyl-N-[3-(methylcarbamoyl)oxolan-3-yl]-5-{[2-(trifluoromethyl)pyridin-3-yl]methoxy}-2H-indazole-3-carboxamide] is 1000 to 20000 nM. The value for `Cc1ncsc1COc1ccc2nn(C)c(C(=O)NC(C)(CO)C(=O)N(C)C)c2c1` (single isomer, unassigned) [Cpd 184 - En1] was 1000 to 20000 nM; that for `Cc1ncsc1COc1ccc2nn(C)c(C(=O)NC(C)(CO)C(=O)N(C)C)c2c1` (single isomer, unassigned) [Cpd 184 - En2] was 1000 to 20000 nM. The figure for `CNC(=O)C(C)(CO)NC(=O)c1c2cc(OCc3scnc3C)ccc2nn1C` (single isomer, unassigned) [Cpd 185 - En1, 3-hydroxy-N,2-dimethyl-2-({2-methyl-5-[(4-methyl-1,3-thiazol-5-yl)methoxy]-2H-indazol-3-yl}formamido)propanamide] is 1000 to 20000 nM; for `CNC(=O)C(C)(CO)NC(=O)c1c2cc(OCc3scnc3C)ccc2nn1C` (single isomer, unassigned) [Cpd 185 - En2, 3-hydroxy-N,2-dimethyl-2-({2-methyl-5-[(4-methyl-1,3-thiazol-5-yl)methoxy]-2H-indazol-3-yl}formamido)propanamide] it is less than 1000 nM.
